Assay results published in patent publication US10183032B2, “Methods for treating bacterial infection” (Ball State Innovation Corporation, priority 2012, dated 2019).

Columns and labels:
[1] = system: Staphylococcus aureus; assay: Staphylococcus aureus host cell invasion assay in HUVEC, flow cytometry; type: cell-based; conditions: HUVEC; for inhibition of invasion compared with ML 141 (Table 1): 10 μM, flow cytometry; for activity at 10 µM: Staphylococcus aureus, 1 h, read-out: Internalized bacteria (% control ± SEM), Structural analog
Description: In one embodiment, human umbilical vein endothelial cells (HUVEC, Life Technologies) are cultured in M200 medium supplemented with LSGS. RAW 264.7 cells (American Type Culture Collection, ATCC, Manassas, Va.) are cultured in RPMI supplemented with 10% FBS and L-glutamine. All cell types are maintained at 5% CO2, 37° C., in 75 cm^2 vented cap flasks (Thermo-Fisher). For assays, cultured cells are plated at 1×10^5 cells/ml in 35 mm culture dishes coated with Attachment Factor. The next day, cells are pretreated in culture medium containing the vehicle control or ML 141. For compound delivery, ML 141 first is suspended into DMSO or into PEG at a concentration of 5 mM. The 5 mM solution is diluted to 1 mM in the solvent and then diluted to the final concentration for each experiment in either serum-containing or serum-free medium. For vehicle control treatment, the same volume of PEG or DMSO as that of ML 141 is added to medium. The following day, the invasion assay is performed. For the shorter duration experiments, compound is added on the same day as the invasion assay, 1 hour prior to bacteria.
In another embodiment, HUVEC (Millipore, Billerica, Mass.) are cultured in EndoGRO LS Complete Media (Millipore) and are maintained at 5% CO2, 37° C., in 75 cm^2 vented cap flasks (Thermo-Fisher). For the invasion assay, cultured cells are plated at 1×10^4 cells/ml in 96-well culture dishes coated with Attachment Factor. The next day, cells are pretreated in culture medium containing the vehicle control, ML 141, or ML 141 structural analog. For compound delivery, ML 141 and structural analogs first are suspended into PEG at a concentration of 5 mM. The 5 mM solution is diluted to 1 mM in the solvent and then is diluted to the final concentration for each experiment in serum containing medium. For vehicle control treatment, the same volume of PEG as that of ML 141 or of ML 141 structural analog is added to the medium. The following day, the invasion assay is performed. Bacteria are added directly to medium containing vehicle control, ML 141, or the ML 141 structural analog.
Two days prior to the assay, TSB is inoculated with S. aureus (American Type Culture Collection #29213) and incubated overnight (225 rpm, 37° C.). Bacteria are subcultured the next day into fresh TSB. On the day of the assay, bacteria are pelleted (10000×g, 37° C., 3 min), are washed in saline, are pelleted as above, are resuspended in saline, then fluorescently labeled by incubation with rabbit anti-mouse IgG Alexa Fluor 488 (final concentration 8 μg/ml, RT, 20 min). Protein A, a S. aureus cell surface protein, avidly binds IgG thereby labeling the bacteria. Labeled bacteria are washed twice as above and are resuspended to 3×10^8 CFU/ml in saline. Host cells are incubated with the bacteria for 1 hour (1.2×10^8 CFU/ml for same-day recovery, 5×10^6 for recovery after 48 hours, 1.4×10^7 CFU/ml; 5% CO2, 37° C.). Following infection, extracellular bacteria are removed by extensive washes with PBS and incubation of the host cells with antimicrobials that have limited mammalian membrane permeability (lysostaphin, 20 μg/ml and gentamicin, 50 μg/ml; 45 min for same-day recovery studies, 48 hours for 2-day recovery studies; 5% CO2, 37° C.). To detect the level of infection using flow cytometry, cells that have been infected with fluorescently-labeled bacteria are washed extensively with PBS, lifted from 96-well plate by incubation with trypsin, washed extensively in FACS buffer (2% BSA/0.1% sodium azide/PBS), fixed (FACS buffer containing 0.74% formaldehyde), and are counted using an Accuri flow cytometer (BD, Franklin Lakes, N.J.). They are also lifted from culture dishes using cell scrapers, pelleted, fixed (1% BSA/0.74% formaldehyde/PBS), and are counted using an Accuri flow cytometer. For enumeration of the infecting bacteria, intracellular bacteria are released from host cells using 1% saponin/PBS (20 min, 5% CO2, 37° C.) and serial dilutions are plated on TSA (16 hours, 37° C.). […]

[2] = system: Human umbilical vein endothelial cells; assay: Cytotoxicity by propidium iodide exclusion, HUVEC; type: cell-based; conditions: HUVEC pretreated 18-20 h
[3] = system: actin stress fibers; assay: Actin stress fiber depolymerization in HUVEC during S. aureus infection; type: cell-based, human; conditions: 18-20 h pretreatment, S. aureus 1 h
Description: (§1) FIG. 8A is an image depicting ML 141 limiting actin stress fiber depolymerization during infection. Human umbilical vein endothelial cells (HUVEC) were incubated with ML 141 or with the vehicle control polyethylene glycol (PEG) 18-20 h prior to infection with Staphylococcus aureus (1 h). Actin was detected using Alexa Fluor 488 phalloidin. Arrows indicate intact actin stress fibers. Arrowhead indicates cell lacking actin stress fibers. 100 cells/treatment were evaluated from randomly selected fields. Data are presented as the % of cells in which actin stress fibers were not detected. Scale bar is 50 μm.
as §1, with “8B” for “8A”, “RSM 06” for “ML 141”, “200” for “Arrows indicate intact actin stress fibers. Arrowhead indicates cell lacking actin stress fibers. 100”
as §1, with “8C” for “8A”, “RSM 16” for “ML 141”, “200” for “Arrows indicate intact actin stress fibers. Arrowhead indicates cell lacking actin stress fibers. 100”
HUVEC are plated at 1×10^5 cells/ml into 35 mm glass-bottom dishes (MatTek, Ashland, Mass.) are coated with Attachment Factor, are pretreated, and are infected (1.2×10^8 CFU) as described above. […] Alexa 488 is excited by the 488 nanommeter Ar laser line and is detected using a 505-530 nanometer bandpass filter. […] Maximum pixel projections from the Z-stacks are generated and are analyzed for actin morphology.

[4] = system: Staphylococcus aureus; assay: Assessment of bactericidal activity (HUVEC media); type: cell-based; conditions: 1.2 × 10^8 CFU S. aureus, 1 h in HUVEC media; 10 μM
Description: FIG. 6B illustrates that neither cytotoxicity nor bactericidal activity is detected. Cultures of Staphylococcus aureus that had been incubated with the vehicle control DMSO or with ML 141 (1 hour, 37° C., 225 rpm) were serially diluted, plated onto blood agar, and incubated (18 hours, 37° C.). Colonies were enumerated and colony forming units (CFU)/ml determined. CFU/ml were not different amongst the groups (p>0.05 by t-test; n=2/treatment). […]

[5] = target: CDC42 (Homo sapiens, UniProt P60953); assay: BODIPY-FL-GTP binding to CDC42
CDC42, sequence (P60953 whole entry): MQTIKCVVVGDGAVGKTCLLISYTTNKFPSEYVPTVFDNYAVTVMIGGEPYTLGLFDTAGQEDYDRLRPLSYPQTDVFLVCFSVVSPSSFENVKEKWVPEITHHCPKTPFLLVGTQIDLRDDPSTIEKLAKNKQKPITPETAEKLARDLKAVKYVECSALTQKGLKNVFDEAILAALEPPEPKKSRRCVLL

SMILES | inhibition of invasion compared with ML 141 (Table 1) [1] | activity at 10 µM [1] | Mean fluorescence intensity (×10^4 ± SEM), Compound (10 μM) [2] | depolymerization of actin stress fibers during infection [3] | CFU (×10^8 ± SEM), Compound (10 μM) [4] | IC50 [5]
COc1ccc(C2=NN(c3ccc(S(N)(=O)=O)cc3)C(c3ccc4c(c3)OCO4)C2)cc1 (stereo not drawn) [RSM 06] | inhibited invasion more than ML 141 | 23 ± 1% | 2.8 ± 0.1 ×10^4 | limited actin depolymerization | 4.9 ± 1.6 ×10^8 CFU | 10.1 µM
COc1ccc(C2=NN(c3ccc(S(N)(=O)=O)cc3)C(c3ccc(OC)c(OC)c3)C2)cc1 (stereo not drawn) [RSM 16] | inhibited invasion more than ML 141 | 63 ± 4% | 1.4 ± 0.2 ×10^4 | limited actin depolymerization | 8.9 ± 1.9 ×10^8 CFU | 3.7 µM
